Source: ChEMBL document CHEMBL3507680, “University of Dundee, Gates Library screen for HepG2 cell viability”

Assay: Human HepG2 cell viability assay in 384 well format
Type: toxicity, cell-based
Design: dose 125 nL, time 70.5 hour; cytotoxicity at 70.5 h: concentration not given beside the values
Details: HepG2 cells, read-out: Inhibition

Structure (SMILES) | cytotoxicity at 70.5 h
O=C1NCC2(CCCN(C(=O)c3ccc4c(c3)CCO4)C2)O1 (configuration not stated) | -4.91%
COC(=O)c1ccc(NC(=O)[C@@H]2CCCN2C(=O)c2ccco2)s1 | -7.02%
CCOCC(=O)N(Cc1ccco1)c1ccc(OC)c(F)c1 | -5.82%
CCn1ccc(C(=O)Nc2ccc3c(c2)C(C)(C)C(=O)N3C)n1 | -15.5%
Cc1nc(-c2nnc[nH]2)sc1C(=O)N1CCCC1c1ccsc1 (configuration not stated) | -5.22%
Cc1cc(C(=O)N2C[C@@H]3CN(S(C)(=O)=O)CCO[C@@H]3C2)c(C)o1 | 19.5%
Cc1ccc(CN(CCN(C)C)Cc2ncc[nH]2)s1 | -5.13%
CC(C)CC(NC(=O)c1ccn(C)c(=O)c1)c1cccs1 (configuration not stated) | 33.9%
NC(=O)NC(=O)CCn1ccc(-c2ccc(F)cc2)n1 | -1.22%
CC(C)n1nc(Cn2cccn2)c2c1CN(C1CCOC1)C2 (configuration not stated) | -4.66%
c1ccc(-c2n[nH]c(CCNc3nnc(C4CCC4)o3)n2)cc1 | -7.22%
COCC(C)(O)CNC(=O)c1cc(-c2ccc(F)cc2)nn1C (configuration not stated) | 1.82%
COCc1noc(Cc2c(C)nn(C)c2C)n1 | -2.81%
c1ccc(Cn2cc3c(n2)C(CNCc2ccco2)OCC3)nc1 (configuration not stated) | -0.917%
CC(C)c1nnc(CN2CCN(CC(O)c3ccccc3)CC2)o1 (configuration not stated) | -0.811%
CN(Cc1ccccn1)C(=O)Nc1cc(C(F)(F)F)c[nH]c1=O | -1.8%
Cc1csc(N2CCN(C(=O)C(C(C)C)n3cncn3)CC2)n1 (configuration not stated) | -1.51%
O=C(NCC(O)c1ccsc1)c1sccc1OC(F)F (configuration not stated) | -13.8%
O=C(NCCCN1CCOCC1)c1cc(-c2ccc3c(c2)CCO3)n[nH]1 | -0.337%
Cc1cc(C(=O)N2CCC3(CC(=O)NC3=O)C2)c(-c2ccccc2)o1 (configuration not stated) | 17.4%
CC(C)c1ccc(OCCNC(=O)c2ccoc2)cc1 | 23.9%
CN(C)C(=O)N1CCN(C(=O)c2ccc(Cl)cc2)CC2(CNC(=O)C2)C1 (configuration not stated) | 11%
Cc1ccc2c(n1)N(CCN(C)C)CCN(C(=O)N1CCOCC1)C2 | -3.39%

Structure (SMILES) | cytotoxicity at 70.5 h
CC1CCN(C(=O)C2CCN(c3ccc(Cl)cc3C#N)CC2)CC1 | -6.44%
O=C(Cn1cnc2sccc2c1=O)NCCc1nnc2ccccn12 | -11.3%
CC(C)=CCN1C(=O)[C@H]2CC[C@@H]1CN(Cc1cccnc1N)C2 | -4.57%
CCSCCNC(=O)Nc1cc(C(=O)N2CCOCC2)ccc1Cl | -3.96%
COc1ccc(CN2CC[C@@H](O)[C@@H]2Cc2ccccc2)cc1 | 38.7%
COCCNc1ccccc1CNC(=O)C1CCCOC1 (configuration not stated) | -2.32%
CSCCCN1CCCC1c1noc(C)n1 (configuration not stated) | 1.11%
CCCC(NC(=O)c1occc1C)c1nnn[nH]1 (configuration not stated) | -1.34%
CN(Cc1nnc(C2CC2)n1C)C1CCN(CCc2cnn(C)c2)C1 (configuration not stated) | 39.7%
Cc1cc(C(=O)N2CCC(CCC(=O)NCCN(C)C)CC2)ccc1O | 24.4%
Cc1cccnc1NCCNC(=O)C1CCN(C(=O)N(C)C)CC1 | 12.2%
CN(CCn1ccc2ccccc21)C(=O)Cc1n[nH]c(=O)[nH]1 | 1.76%
CCn1cc(CNC(=O)C2CCCC2)cn1 | -17.8%
O=C(NCCNc1ccc(C(F)(F)F)cn1)c1ccc(F)cc1Cl | -3.01%
CC(C)n1ncc2cc(NC(=O)N3CCSCC3)cnc21 | -3.2%
COc1c(CNCc2ccc(Cn3cccn3)cc2)c(C)nn1C | 3.44%
CCc1cc(O)n2nc(C3CCN(C(=O)c4ccncc4)CC3)cc2n1 | 20.6%
CC(C)c1nc(CS(=O)(=O)Cc2noc(C3CC3)n2)cs1 | -13.6%
CC(C)=CCN1CC2(CCN(Cc3c(F)cccc3F)CC2)CC1=O | 23.4%
CC(C)N1[C@H](Cn2cncn2)C[C@@H]2CNCC[C@@H]21 | 0.707%
Cn1ccc(-c2cc(C(=O)N3CCC(C(N)=O)CC3)c3ccccn23)n1 | -8.35%
CCc1cc(N2CCN(c3cnccn3)CC2)n2nc(C)c(C)c2n1 | 10.7%
O=C(NCc1ccco1)[C@@]12CCO[C@@H]1CCN(Cc1nccs1)C2 | 1.38%

Structure (SMILES) | cytotoxicity at 70.5 h
O=C(NCCC1CCCCO1)c1coc(COc2ccc(F)cc2)n1 (configuration not stated) | -6.58%
COc1cnc(C2(O)CCN(C(=O)c3cccnc3)CC2)c(OC)n1 | -4.88%
COc1ccc(C2(NCc3noc(C4CC4)n3)CCOCC2)cc1 | -12.1%
CC(=O)N(Cc1ncc(C(C)C)o1)C1CCN(Cc2ccno2)C1 (configuration not stated) | 1.29%
Cc1ccc2nc(NCCCN3CCCCCC3=O)n(C)c(=O)c2c1 | -20%
COc1ccc(Cl)cc1NC(=O)CCC1CCCN(Cc2ncon2)C1 (configuration not stated) | -1.15%
COCCCNC(=O)c1cc(C(C)C)nc(N2CCCCCC2)n1 | -8.22%
CN1CCC(c2nnc3ccc(C(=O)NC4CCCC4)cn23)C1 (configuration not stated) | 15%
CN1CC2(CNCCN(C(=O)Nc3ccccc3)C2)CC1=O (configuration not stated) | -7.57%
O=C(NCC(=O)N1CCCC1Cc1cccc(F)c1)c1ccccn1 (configuration not stated) | -9.78%
CCc1cnc(N2C[C@H]3C[C@H](C(=O)NC)[C@@H](C2)O3)nc1 | -1.27%
CSCCCNC(=O)C(c1ccccc1C)N(C)C (configuration not stated) | -6.07%
CCO[C@H]1CN(C)C[C@@H]1NC(=O)c1cc(C)nc2c(C)c(C)ccc12 | -6.51%
COc1ccc(CN[C@@H]2CO[C@H](CNC(=O)N3CCOCC3)[C@H]2O)cc1 | 2.1%
COCCN1CCCC2(CCN(Cc3noc(C4CCCC4)n3)C2)C1=O (configuration not stated) | -4.8%
CN1CC2(CCN(S(=O)(=O)C3CC3)CC2)c2ccccc21 | 11%
CCOC(C)C(=O)NCc1cccc(CN2CCCCCC2)c1 (configuration not stated) | -2.85%
Cc1ccc(CN2CCNC(C(=O)NC3CC3)C2)cc1C (configuration not stated) | -10.4%
COCc1nc(C(=O)N2CCCC2c2c(C)nn(C)c2C)cs1 (configuration not stated) | -6.67%
CN1CCOC(C(=O)Nc2ccc3[nH]nnc3c2)C1 (configuration not stated) | -3.75%
Cc1nc(C)n(CC2CCCN(Cc3cn4c(C)cccc4n3)C2)n1 (configuration not stated) | -11.6%
COc1ccc(C(=O)N2CCN(C(=O)c3csc(C(C)C)n3)CC2)cc1 | 28%
Cc1nc(C)n(CC2CCCN2CC(=O)NCCc2ccccc2)n1 (configuration not stated) | -4.21%

Structure (SMILES) | cytotoxicity at 70.5 h
O=C(CSc1ccc2c(c1)OCCO2)NS(=O)(=O)c1ccccc1Cl | -4.64%
CS(=O)(=O)NCC1CCCCN1C(=O)c1ccsc1 (configuration not stated) | -2.66%
CCCn1ncc(CN2C[C@@H]3CCCN3C[C@@H]2CCSC)c1C | 8.56%
CCC[C@H]1CN(CCS(C)(=O)=O)C[C@@H]1NC(=O)c1ccccn1 | -5.77%
CCN(C)c1ccc(CNS(=O)(=O)C2CCOCC2)cc1F | -10.6%
Cc1cc(C)nc(N2CCC(Cn3cc(C(=O)N(C)C)cn3)CC2)n1 | -3.57%
O=C(NC1CCCCNC1=O)c1cc2ccccc2[nH]c1=O (configuration not stated) | -15.7%
Cc1cc(NCCc2nc(C)cs2)nc(-c2cccnc2)n1 | -9.72%
CN(C)c1nccc(N2CCO[C@H]3CN(CC4CCOCC4)C[C@H]32)n1 | -7.1%
O=C(NCC1CCS(=O)(=O)C1)c1cccc(CN2CCCC2)c1 (configuration not stated) | -16%
Cc1cc2c(=O)n3c(nc2s1)CCN(Cc1[nH]cnc1C)CC3 | -9.2%
CC(O)CNc1ccc(C#N)cc1C(F)(F)F (configuration not stated) | -12.9%
NC(=O)c1cc(C2CCCN(CCc3ccc4c(c3)CCO4)C2)n[nH]1 (configuration not stated) | -19%
CN(C)Cc1cccc(-c2cccnc2C(=O)NCC2CC2)c1 | -2.77%
CC(C)C(=O)N1CCC12CCCN(C(=O)c1ccnnc1)C2 (configuration not stated) | -6.79%
Cc1nc(C)n(CC2CCCCN2Cc2cn3ccccc3n2)n1 (configuration not stated) | -19.3%
COc1cc(CNCc2ccnc(N3CCCCC3)c2)cc(OC)c1 | 4.65%
NCCO[C@H]1C[C@@H](O)C12CCN(Cc1c(F)cccc1F)CC2 | -7.05%
CC(c1nc(C(C)(C)C)no1)N1CCN(C(=O)CN2CCOCC2)CC1 (configuration not stated) | -6.71%
Cc1noc(C)c1CCC(=O)N1CCn2cccc2C1C (configuration not stated) | -0.947%
CC(C)Oc1cccc(C(=O)C2CCCN(C(=O)c3cncs3)C2)c1 (configuration not stated) | -10.7%
COCc1noc(C2(c3ccc(F)cc3)CCOCC2)n1 | 28.8%
CCc1cccc(CC)c1NC(=O)c1ccccc1N(C)S(C)(=O)=O | -8.14%

Structure (SMILES) | cytotoxicity at 70.5 h
CC(=O)N1CCC(N[C@@H]2CO[C@H](CNC(=O)c3cccs3)[C@H]2O)CC1 | 4.51%
CC(C)(C(=O)N1CCCC(OCc2cccnc2)C1)n1cccc1 (configuration not stated) | -4.94%
CCNc1ncc(CN2CCOC(Cc3cccc(OC)c3)C2)cn1 (configuration not stated) | -2.81%
O=S(=O)(NC1=NCN(CCc2ccccc2)CN1)c1ccc(F)cc1 | -27.6%
CN(CC(C)(C)C)S(=O)(=O)c1ccc(C(F)(F)F)nc1 | -25.1%
COc1cccc2c1ccn2CCNC(=O)C1CCC1 | -13.3%
CC1=NN(c2ccc(C(=O)OCCNC(=O)c3ccncc3)cc2)CC1 | -2.48%
Cc1ccsc1C(O)CNS(=O)(=O)Cc1ccc(F)cc1 (configuration not stated) | -10.1%
COCCN1CCc2cc(C(=O)O)c(-c3ccoc3)nc2CC1 | -12.3%
Cc1cc(CNCc2c(C)nn(C)c2N2CCOCC2)no1 | -4.07%
CCc1ccc(C(=O)N2CCCC(c3nn[nH]n3)C2)cc1 (configuration not stated) | -3.67%
Cc1ccc(C(=O)Nc2ccc3c(c2)N(C)CCN(C)C3)c(=O)[nH]1 | -7.32%
Cc1ccc(NC2CCN(C(=O)CCCn3ccnc3C)CC2)nn1 | -7.72%
Cc1noc([C@@]23CCO[C@@H]2CCN(C(=O)CCC(C)C)C3)n1 | 1.83%
O=C(NCCc1ccncc1)[C@H]1CC[C@@H]2[C@@H](CCN2C2CCC2)O1 | -7.73%
COCC(=O)Nc1cnc(N2CCN(c3ccccc3)CC2)nc1 | 2.64%
CC(O)c1cccc(N2CCC3(CCC(=O)N(C4CCCC4)C3)CC2)n1 (configuration not stated) | -2.86%
CC(C)[C@@H]1CN(C(=O)CN(C)Cc2ccccc2)C[C@H]1C(=O)O | -6.53%
CCS(=O)(=O)NCC(=O)Nc1cc(CC(C)(C)C)n[nH]1 | 0.46%
CCc1csc(NC(=O)NCc2ccccn2)n1 | -2.4%
